Patent US6387891B2, “COMPOUNDS WITH CHELATION AFFINITY AND SELECTIVITY FOR FIRST TRANSITION SERIES ELEMENTS AND THEIR USE IN COSMETICS AND PERSONAL CARE PRODUCTS, INHIBITION OF METALLOENZYMES, AND INHIBITION OF REPERFUSION INJURY” (Concat, Ltd., priority 2000, dated 2002)
Counter-ions that a name gives are not always drawn.

Legend:
[1] = test system: BGM cells (a continuous cell line of monkey origin); experiment: Inhibition of mammalian cell replication in vitro; format: cell-based
Description: Concentrations of this ligand of 0.009 mM/L inhibited the growth of both BGM cells (a continuous cell line of monkey origin) and HFF cells (human foreskin fibroblasts).

[2] = test system: HFF cells (human foreskin fibroblasts); experiment: Inhibition of mammalian cell replication in vitro; format: cell-based
[3] = test system: isolated working rat heart; experiment: Ischemic/reperfused isolated working rat heart model
Description: Using the ischemic/reperfused isolated working rat heart model of Ferdinandy et al., Cardiovasc. […] Concentrations of this agent as high as 7.2 mM had no adverse effects on the heart either before or after hypoxia/reperfusion injury.

[4] = target: T1, Matrix metalloproteinase-2 (MMP-2) secreted by cells (Homo sapiens, UniProt P08253); experiment: MMP-2 inhibition after gel electrophoresis, incubation in developing medium; format: biochemical; settings: MMP-2 band after gel electrophoresis
T1 construct: Matrix metalloproteinase-2 (MMP-2) secreted by cells into growth media; endogenous in cells
Source text: (§1) Matrix metalloproteinase-2 (MMP-2) secreted by cells into growth media was separated by gel electrophoresis into its distinct band. […] Concentrations of less than 10 microM of sodium salt of N,N′,N″-tri(dihydroxyphosphoryl methyl)-1,4,7-triazacyclononane inhibited monocyte penetration of Matrigel membranes.

AIDS virus = experiment: Inhibition of AIDS virus replication (soluble-formazan assay for HIV-1 cytopathic effects); format: cell-based; settings: Human immunodeficiency virus 1; read-out: EC50 (inhibition of the AIDS Virion)
Description: (§2) The antiviral efficacy of N,N′,N″-tris(5-t-butyl-2-hydroxy-benzyl)-1,4,7-triazacyclononane against the AIDS virus was evaluated employing published methodology (see, “New Soluble-Formazin Assay for HIV-1 Cytopathic Effects: Application to High Flux Screening of Synthetic and Natural Products for AIDS-Antiviral Activity,” J. Natl. Cancer Inst. 81:577-586, 1989).

[5] = Cytotoxicity study in AIDS antiviral screen (soluble-formazan assay); format: cell-based; settings: human, T4 lymphocytes
Description: as §2

[6] = test system: mature, nonreplicating cultures of HFF (human foreskin fibroblasts); experiment: Toxicity toward nonproliferating mammalian cells in vitro; format: cell-based; settings: 0.3 mM, maintenance media, five-day period of observation
Sprague Dawley rats = experiment: Subacute toxicity, repeated intravenous doses in rats; format: in vivo; settings: 0.05 millimoles per kg i.v. on 10 days
Source text: Ten male Sprague Dawley rats 29 days old and weighing between 73.4 and 87.8 grams at the beginning of the experiment were randomized, employing the block stratification method, into two groups consisting of five rats each. On each of days 1, 2, 3, 6, 7, 8, 9, 10, 13 and 14 of the experiment one set of rats received an intravenous dose of N,N′,N″-tri(dihydroxyphosphoryl methyl)-1,4,7-triazacyclononane (Example 1C in U.S. Pat. No. 5,236,695) equal to 0.05 millimoles per kg of initial body weight (experimental group) while the other group received an equivalent volume of normal saline solution. The weights of the animals were recorded three times per week and the animals were sacrificed on the 28th day, major organs removed and weighed and tissues removed for microscopic examination.

Microsporum canis = experiment: Inhibition of mycotic cell replication in vitro (MIC); format: cell-based
Description: (§3) N,N′,N″-tris(dihydroxyphosphorylmethyl)-1,4,7-triazacyclononane was prepared as described in Example 1C in U.S. Pat. No. 5,236,695. Studies were performed to determine its ability to inhibit growth of mycotic (fungal) organisms.
(§4) For Microsporum canis the minimum inhibitory concentration was 0.233 mM/L or less. For Candida albicans and Trichophyton rubrum the minimal inhibitory concentration was 2.33 mM/L. For Trichophyton mentagrophytes, Trichophyton tonsuras and Trichophyton violaceum the minimal inhibitory concentration was 23.3 mM/L.

[7] = test system: Trichophyton mentagrophytes; experiment: as above; format: cell-based
Description: as §3, §4

Trichophyton rubrum = experiment: as above; format: cell-based
Description: as §3, §4

Trichophyton tonsuras = experiment: as above; format: cell-based
Description: as §3, §4

Trichophyton violaceum = experiment: as above; format: cell-based
Description: as §3, §4

Candida albicans = experiment: as above; format: cell-based
Description: as §3, §4

[8] = Chemical antioxidant properties, coupled oxidation of carotene and linoleic acid; format: physicochemical
Description: Antioxidant properties of N,N′,N″-tri(dihydroxyphosphoryl methyl)-1,4,7-triazacyclononane were evaluated employing the coupled oxidation of carotene and linoleic acid, using the method described in “Phenolic Antioxidants of Dried Soybeans,” Hammerschmidt, P. A., Praat, D. E., 1978, Journal of Food Sciences, vol. 43, pp. 556-559.

[9] = test system: Streptococcus hemolyticus; experiment: Inhibition of bacterial replication in vitro (MIC); format: cell-based
Description: (§5) N,N′,N″-tris(dihydroxyphosphorylmethyl)-1,4,7-triazacyclononane was prepared as described in Example 1C in U.S. Pat. No. 5,236,695. Studies were performed to determine its ability to inhibit bacterial growth. For Streptococcus hemolyticus, Listeria monocytogenes, Enterobacter cloacae and Klebsiella pneumoniae the minimum inhibitory concentration was determined to be 0.15 mM/L. For Enterococcus fecalis, Pseudomonas aeruginosa and Acinobacter anitratus the minimum inhibitory concentration was determined to be 0.3 mM/L.

Acinobacter anitratus = experiment: Inhibition of bacterial replication in vitro (MIC); format: cell-based
Description: as §5

Listeria monocytogenes = experiment: Inhibition of bacterial replication in vitro (MIC); format: cell-based
Description: as §5

Pseudomonas aeruginosa = experiment: Inhibition of bacterial replication in vitro (MIC); format: cell-based
Description: as §5

Klebsiella pneumoniae = experiment: Inhibition of bacterial replication in vitro (MIC); format: cell-based
Description: as §5

Enterococcus fecalis = experiment: Inhibition of bacterial replication in vitro (MIC); format: cell-based
Description: as §5

Enterobacter cloacae = experiment: Inhibition of bacterial replication in vitro (MIC); format: cell-based
Description: as §5

Streptococcus Sobrinus = experiment: Inhibition of cariogenic bacteria (MIC, RPMI medium); format: cell-based; settings: read-out: minimum inhibitory concentration (MIC)
underarm odor = experiment: Inhibition of underarm odor in human subjects; format: in vivo
Source text: Human subjects applied a 30% aqueous solution of the neutral sodium salt of N,N′,N″-tri(dihydroxyphosphoryl methyl)-1,4,7-triazacyclononane in one axilla and a control aqueous solution in the other.

monocyte = experiment: Monocyte penetration of Matrigel membranes; format: cell-based
Source text: as §1

mice = experiment: Acute intravenous toxicity in mice; format: in vivo; settings: 4.0 mM/kg single intravenous dose
Description: (§6) This example illustrates the low in vivo toxicity of a representative ligand administer intravenously to mice.
(§7) This in vivo LD50 toxicity dose results in an instantaneous in vivo concentration which is orders of magnitude greater than the dose of this agent which inhibits mammalian cell replication in vitro (0.009 mM/L).

[10] = Acute intravenous toxicity in mice; format: in vivo; settings: mouse, in vivo, 4 mM/kg, intravenous
Description: as §6, §7

pure MMP-2 enzyme = pure MMP-2 enzyme (Homo sapiens, UniProt P08253); experiment: Inhibition of pure MMP-2 enzyme; format: biochemical
[11] = test system: 57 human cancer cell lines; experiment: In vitro proliferation of 57 human cancer cell lines; format: cell-based; settings: cell line groups compared
Description: The ability of N-methyl-N′,N″-bis(dihydroxyphorylmethyl)-1,4,7-triazacyclononane to inhibit proliferation of 57 human cancer cell lines in vitro was evaluated employing published methods as published in J. Natl. Cancer Inst., 83:757-766, 1991. The concentration of agent that caused 50% inhibition of cell replication relative to controls [Gl50] were determined. In one set of experiments the mean midpoint of Gl50 for all cell lines tested was (10)^−4.72 with a delta value of (10)^2.95 and a range of (10)^3.67.

T1 sequence (P08253 110-660, species assumed): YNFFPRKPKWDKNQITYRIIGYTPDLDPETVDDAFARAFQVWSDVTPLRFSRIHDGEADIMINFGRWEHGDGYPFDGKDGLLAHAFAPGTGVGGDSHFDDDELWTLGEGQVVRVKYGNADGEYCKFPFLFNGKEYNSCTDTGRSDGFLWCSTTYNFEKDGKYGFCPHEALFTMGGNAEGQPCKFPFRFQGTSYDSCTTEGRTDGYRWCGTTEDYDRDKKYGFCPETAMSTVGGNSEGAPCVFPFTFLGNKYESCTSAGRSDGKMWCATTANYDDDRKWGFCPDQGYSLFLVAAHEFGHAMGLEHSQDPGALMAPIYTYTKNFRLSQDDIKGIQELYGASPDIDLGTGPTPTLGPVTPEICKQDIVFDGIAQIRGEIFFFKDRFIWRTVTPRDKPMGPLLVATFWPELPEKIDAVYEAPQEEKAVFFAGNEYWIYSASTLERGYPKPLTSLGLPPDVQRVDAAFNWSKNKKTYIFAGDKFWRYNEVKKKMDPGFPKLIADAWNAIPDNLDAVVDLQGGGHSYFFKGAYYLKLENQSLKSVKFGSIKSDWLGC
Sequence of pure MMP-2 enzyme (P08253 110-660): as the sequence (P08253 110-660, species assumed) above

O=C(O)CN1CCN(CC(=O)O)CCN(CC(=O)O)CC1 [Example 1.3.6.1, N,N′,N″-Tris(carboxymethyl)-1,4,7-triazacyclononane]
concentration that inhibited BGM cell growth [1]: 0.009 mM/L
concentration that inhibited HFF cell growth [2]: 0.019 mM/L

O=C(O)CN(CCN(CC(=O)O)CC(=O)O)CCN(CC(=O)O)CC(=O)O [Diethylene triamine penta acetic acid, reference compound]
concentration that inhibited BGM cell growth [1]: 0.075 mM/L
concentration that inhibited HFF cell growth [2]: 0.3 mM/L

salts of N,N′,N″-tri(dihydroxyphosphoryl methyl)-1,4,7-triazacyclononane
concentration with no adverse effects on the heart ([3]; before or after hypoxia/reperfusion injury): ≥ 7.2 mM
concentration in the perfusing medium effective in improving myocardial functional parameters and decreasing the incidence of ventricular fibrillation ([3]; ischemic/reperfused isolated working rat heart): ≤ 0.1 mM
concentration that inhibited enzymatic action of MMP-2 [4]: less than 10 microM

CC(C)(C)c1ccc(O)c(CN2CCN(Cc3cc(C(C)(C)C)ccc3O)CCN(Cc3cc(C(C)(C)C)ccc3O)CC2)c1 [N,N′,N″-tris(5-t-butyl-2-hydroxy-benzyl)-1,4,7-triazacyclononane]
EC50 (AIDS virus): 3000 nM
IC50 [5]: 110 µM

CCOC(=O)CN1CCN(CC(=O)OCC)CCN(CC(=O)OCC)CC1 [Example 1.3.6.13, N,N′,N″-Tris(ethoxycarbonylmethyl)-1,4,7-triazacyclononane]
concentration that inhibited BGM cell growth [1]: 0.04 mM/L
concentration that inhibited HFF cell growth [2]: 0.16 mM/L

O=P(O)(O)CN1CCN(CP(=O)(O)O)CCN(CP(=O)(O)O)CC1 [N,N′,N″-tris(dihydroxyphosphorylmethyl)-1,4,7-triazacyclononane]
effect on resting (nonreplicating) HFF cells [6]: no effect on the resting cells was observed
concentration that inhibited BGM cell growth [1]: 0.009 mM/L
weight or rate of weight gain vs control (Sprague Dawley rats; injection and two-week post-injection period): no statistically significant difference in weight or rate of weight gain
microscopic examination of tissues vs control (Sprague Dawley rats; necropsy on 28th day): no differences between the tissues
weights of major organs vs control (Sprague Dawley rats; sacrificed on 28th day): no differences observed between the weights of major organs
minimum inhibitory concentration (Microsporum canis): ≤ 0.233 mM/L
minimal inhibitory concentration [7]: 23.3 mM/L
minimal inhibitory concentration (Trichophyton rubrum): 2.33 mM/L
minimal inhibitory concentration (Trichophyton tonsuras): 23.3 mM/L
minimal inhibitory concentration (Trichophyton violaceum): 23.3 mM/L
minimal inhibitory concentration (Candida albicans): 2.33 mM/L
antioxidant activity [8]: antioxidant activity similar to the commonly used food antioxidant butylated hdryoxyanisole (BHA)
minimum inhibitory concentration [9]: 0.15 mM/L
minimum inhibitory concentration (Acinobacter anitratus): 0.3 mM/L
minimum inhibitory concentration (Listeria monocytogenes): 0.15 mM/L
minimum inhibitory concentration (Pseudomonas aeruginosa): 0.3 mM/L
minimum inhibitory concentration (Klebsiella pneumoniae): 0.15 mM/L
minimum inhibitory concentration (Enterococcus fecalis): 0.3 mM/L
minimum inhibitory concentration (Enterobacter cloacae): 0.15 mM/L
MIC (Streptococcus Sobrinus): < 20 µM
concentration that inhibited HFF cell growth [2]: 0.009 mM/L

O=P(O)(O)CN1CCN(CP(=O)(O)O)CCN(CP(=O)(O)O)CC1 [sodium salt of N,N′,N″-tris-(dihydroxyphosphorylmethyl)-1,4,7-triazacyclononane]
subjective evaluation of underarm odor (underarm odor; 30% aqueous solution in one axilla, control aqueous solution in the other): less underarm odor in the treated axilla than in the control
duration of decreased underarm odor after a single application (underarm odor; 30% aqueous solution, single application): up to one week
concentration that inhibited monocyte penetration of Matrigel membranes (monocyte): less than 10 microM
mice surviving for over 14 days (mice): Over 50%
LD50 [10]: > 4000 µmol/kg
IC50 (pure MMP-2 enzyme): < 10 µM

CN1CCN(CP(=O)(O)O)CCN(CP(=O)(O)O)CC1 [N-methyl-N′,N″-bis(dihydroxyphorylmethyl)-1,4,7-triazacyclononane]
relative sensitivity of cancer cell groups [11]: leukemia and colon cancer cells were more sensitive to the agent than were other cancer cells
